Assays:
Format in all cases: physicochemical
[1] = Test 2: long-term stability test, resin 1; design: key: ⊚: homogeneous solution; ◯: no separation, but solution was partially heterogeneous (still can be used); Δ: slight separation was confirmed; X: complete separation or sedimentation was confirmed; conditions: 5 mass % in resin 1, one week at 40° C.
Method: (§1) Inventive Products 1 to 14 and Comparative Products 1 to 11 were each compounded at 5 mass % with the test emulsion resins, 80 ml of each product obtained was introduced by 80 ml into a 100-ml screw pipe, closed with a lid and allowed to stay for a week in a thermostat at 40° C. The external appearance of the emulsion resins thereafter was determined according to the following criteria. • ⊚: homogeneous solution • ◯: no separation, but solution was partially heterogeneous (still can be used) • Δ: slight separation was confirmed • X: complete separation or sedimentation was confirmed <Test 3: Water Solubility Confirmation Test>

[2] = Boiling point
[3] = Test 2: long-term stability test, resin 2; design: key: ⊚: homogeneous solution; ◯: no separation, but solution was partially heterogeneous (still can be used); Δ: slight separation was confirmed; X: complete separation or sedimentation was confirmed; conditions: 5 mass % in resin 2, one week at 40° C.
Method: as §1

SMILES | Test 2: long-term stability, external appearance [1] | boiling point [2] [°C] | Test 2: long-term stability, external appearance [3]
CCCCOCCO [Comparative Product 10, butyl cellosolve] | ⊚ | 171 | ⊚
CN1CCCC1=O [Comparative Product 11, N-methylpyrrolidone] | ⊚ | 202 | ⊚

Reference: patent US9518166B2, “Film forming auxiliary agent composition for emulsion resin” (ADEKA CORPORATION, priority 2013, dated 2016)
